What was measured:
Experiment in all cases: [125I]hCXCL10 competition binding (SPA, Ba/F3 membranes)
Conditions in all cases: read-out: IC50 (nM) (CXCL10)
dog CXCR3 = target: T1, dog CXCR3 (Canis lupus familiaris, UniProt Q5KSK8)
T1 construct: expressed in transfected cells; host or cells: mouse pro-B Ba/F3 cells (vector pME18Sneo), membrane preparation
Protocol: (§1) The cDNAs encoding human, mouse and rat CXCR3 were generated based on the published sequences: human (NM_001504), mouse (NM_009910), rat (NM_053415). The cDNAs for monkey and dog CXCR3 were cloned in the lab. All CXCR3 cDNAs were cloned into the mammalian expression vector pME18Sneo, a derivative of the SRα expression vector as described previously. IL-3-dependent mouse pro-B cells Ba/F3 were transfected to express CXCR3 of different species and cell membranes were prepared as described previously.
(§2) A scintillation proximity assay was used for radioligand competition binding assays as described previously with some modifications. For each assay point, 1 µg of membrane was preincubated for 1 hr with 300 µg wheat germ agglutinin (WGA) coated SPA beads (GE Healthcare Life Sciences) in the binding buffer (50 mM HEPES, 1 mM CaCl2, 5 mM MgCl2, 125 mM NaCl, 0.002% NaN3, 1.0% BSA) at room temperature. The beads were spun down, resuspended in the binding buffer and transferred to a 96-well Isoplate (Wallac, Gaithersburg, MD). The indicated concentrations of ^125I-hCXCL10, ^125I-hCXCL11 or ^35S-SCH 535390 with a series of titrations of SCH 546738 were added to start the reaction. After indicated reaction times at room temperature, the amount of radioactivity bound to the SPA beads was determined with a Wallac 1450 Microbeta counter (Wallac).
(§3) It is important to investigate species specificity of SCH 546738 to design in vivo preclinical studies.

mouse CXCR3 = target: T2, mouse CXCR3 (Mus musculus, UniProt O88410)
T2 construct: expressed in transfected cells; host or cells: mouse pro-B Ba/F3 cells (vector pME18Sneo), membrane preparation
T2 sequence (O88410 whole entry): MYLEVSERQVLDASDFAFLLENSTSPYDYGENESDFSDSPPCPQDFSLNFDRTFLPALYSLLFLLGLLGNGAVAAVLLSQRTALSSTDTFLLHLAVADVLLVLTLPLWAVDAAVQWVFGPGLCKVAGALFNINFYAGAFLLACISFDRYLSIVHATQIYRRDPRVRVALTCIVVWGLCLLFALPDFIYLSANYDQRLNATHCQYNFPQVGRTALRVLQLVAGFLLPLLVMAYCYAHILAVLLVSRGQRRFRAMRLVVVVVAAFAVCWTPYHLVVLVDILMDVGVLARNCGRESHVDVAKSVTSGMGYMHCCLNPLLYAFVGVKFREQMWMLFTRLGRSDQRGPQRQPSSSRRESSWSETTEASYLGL
Protocol: as §1, §2, §3

rat CXCR3 = target: T3, rat CXCR3 (Rattus norvegicus, UniProt Q9JII9)
T3 construct: expressed in transfected cells; host or cells: mouse pro-B Ba/F3 cells (vector pME18Sneo), membrane preparation
T3 sequence (Q9JII9 whole entry): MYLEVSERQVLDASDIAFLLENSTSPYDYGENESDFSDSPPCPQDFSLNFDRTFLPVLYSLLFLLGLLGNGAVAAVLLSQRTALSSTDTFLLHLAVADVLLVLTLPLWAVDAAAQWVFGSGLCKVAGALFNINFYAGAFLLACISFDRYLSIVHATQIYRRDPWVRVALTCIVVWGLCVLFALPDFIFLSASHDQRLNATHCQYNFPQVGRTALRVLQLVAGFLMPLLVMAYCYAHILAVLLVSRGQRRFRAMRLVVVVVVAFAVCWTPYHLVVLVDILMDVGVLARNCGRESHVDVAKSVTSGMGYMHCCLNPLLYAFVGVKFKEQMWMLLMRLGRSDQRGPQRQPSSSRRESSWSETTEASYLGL
Protocol: as §1, §2, §3

T1 sequence (Q5KSK8 whole entry): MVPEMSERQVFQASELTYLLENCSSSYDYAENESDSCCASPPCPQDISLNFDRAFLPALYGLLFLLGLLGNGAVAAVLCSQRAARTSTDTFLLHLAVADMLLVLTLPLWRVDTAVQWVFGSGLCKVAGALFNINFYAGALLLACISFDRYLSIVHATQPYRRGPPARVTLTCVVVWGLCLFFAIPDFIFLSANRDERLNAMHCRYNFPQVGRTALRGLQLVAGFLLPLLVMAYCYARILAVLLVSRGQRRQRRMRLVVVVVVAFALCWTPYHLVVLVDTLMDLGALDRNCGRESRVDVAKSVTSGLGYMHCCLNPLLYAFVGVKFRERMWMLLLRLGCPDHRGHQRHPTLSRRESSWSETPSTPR

SMILES: CC[C@H]1CN(c2nc(N)c(C(N)=O)nc2Cl)CCN1C1CCN(Cc2ccc(Cl)cc2)CC1 [SCH 546738]
- IC50 (dog CXCR3): 6.4 nM
- IC50 (mouse CXCR3): 5.9 nM
- IC50 (rat CXCR3): 4.2 nM
